Experimental data as given in patent publication US11214594B2, “Antimicrobial peptide having synergistic antibacterial effect with antibiotics on multidrug resistant bacteria, and use thereof” (priority 2016, dated 2022).
≈ marks a conversion by molar mass, not a printed value. Where a SMILES comes first, the peptide text is derived from it.

Key:
[1] = test system: MDREC 1238; assay type: cell-based, Escherichia coli
Method in brief: (§1)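 Each strain is brought to 2×10^6 CFU in nutrient-sufficient Mueller-Hinton medium and dispensed into wells. Peptide solutions, stepwise diluted 2:1 in the same medium, are then added. The minimal concentration preventing growth gives the MIC.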

[2] = test system: P. aeruginosa; assay: microbe, parasite or virus in culture; assay type: cell-based, Pseudomonas aeruginosa
Method in brief: as §1

[3] = test system: MDRPA 2002; assay type: cell-based, Pseudomonas aeruginosa
Method in brief: as §1

[4] = test system: MDRPA 2003; assay type: cell-based, Pseudomonas aeruginosa
Method in brief: as §1

[5] = test system: A. baumannii; assay: microbe, parasite or virus in culture; assay type: cell-based, Acinetobacter baumannii
Method in brief: as §1

[6] = test system: MDRAB 12035; assay: microbe, parasite or virus in culture; assay type: cell-based, Acinetobacter baumannii
Method in brief: as §1

[7] = test system: S. typhimurium; assay: microbe, parasite or virus in culture; assay type: cell-based, Salmonella typhimurium
Method in brief: as §1

[8] = test system: MDRST 8009; assay type: cell-based, Salmonella typhimurium; details: agent alone
Method in brief: as §1

[9] = test system: S. epidermidis; assay: microbe, parasite or virus in culture; assay type: cell-based, Staphylococcus epidermidis
Method in brief: as §1

[10] = test system: MRSA 3114; assay type: cell-based, Staphylococcus aureus; details: 3114
Method in brief: as §1

[11] = test system: MRSA 3126; assay type: cell-based, Staphylococcus aureus; details: 3126
Method in brief: as §1

[12] = test system: MDRAB 12035; assay: MIC of antibiotic during combined treatment with antimicrobial peptide; assay type: cell-based, Acinetobacter baumannii
Procedure: Specifically, the strains described in [Table 2] were prepared and diluted with an MH medium such that the number of bacteria was 2×10^6 colony-forming units (CFUs) per 1 ml, 100 μl of the diluted strains was each aliquoted into a 96-well microtiter plate, and then 50 μl of a peptide solution diluted with the MH medium from the MIC value (solution diluted stepwise at 2: 1) was added to each well. Thereafter, the MIC value of each mixed solution was determined by diluting the antibiotic solution with the MH medium, adding 50 μl of the diluted solution to each well, and performing an experiment even under a reversed condition.

[13] = peptide treatment concentration 1 μg/ml
[14] = peptide treatment concentration 2 μg/ml
[15] = peptide treatment concentration 4 μg/ml
[16] = peptide treatment concentration 6 μg/ml
[17] = peptide treatment concentration 8 μg/ml
[18] = peptide treatment concentration 16 μg/ml
[19] = peptide treatment concentration 32 μg/ml
[20] = peptide treatment concentration 64 μg/ml

Row | SMILES | Minimal inhibitory concentration MIC [1] [µg/mL] | Minimal inhibitory concentration MIC [2] [µg/mL] | Minimal inhibitory concentration MIC [3] [µg/mL] | Minimal inhibitory concentration MIC [4] [µg/mL] | Minimal inhibitory concentration MIC [5] [µg/mL] | Peptide MIC, peptide alone [5] [µg/mL] | Minimal inhibitory concentration MIC [6] [µg/mL] | Peptide MIC, peptide alone [6] [µg/mL] | Minimal inhibitory concentration MIC [7] [µg/mL] | Minimal inhibitory concentration MIC [8] [µg/mL] | Minimal inhibitory concentration MIC [9] [µg/mL] | Minimal inhibitory concentration MIC [10] [µg/mL] | Minimal inhibitory concentration MIC [11] [µg/mL] | Erythromycin MIC during combined treatment with peptide [12, 13] [µg/mL] | Linezolid MIC during combined treatment with peptide [12, 13] [µg/mL] | Vancomycin MIC during combined treatment with peptide [12, 13] [µg/mL] | Erythromycin MIC during combined treatment with peptide [12, 14] [µg/mL] | Linezolid MIC during combined treatment with peptide [12, 14] [µg/mL] | Vancomycin MIC during combined treatment with peptide [12, 14] [µg/mL] | Erythromycin MIC during combined treatment with peptide [12, 15] [µg/mL] | other results
1 | CC[C@H](C)[C@H](NC(=O)[C@H](CCCCN)NC(=O)[C@H](Cc1c[nH]c2ccccc12)NC(=O)[C@@H](N)CCCNC(=N)N)C(=O)N[C@@H](Cc1ccccc1)C(=O)N[C@@H](CCCCN)C(=O)N[C@@H](CCCCN)C(=O)N[C@H](C(=O)N1CCC[C@H]1C(=O)N[C@@H](CCCCN)C(=O)N[C@@H](CC(C)C)C(=O)N[C@@H](CC(C)C)C(=O)N[C@@H](Cc1c[nH]cn1)C(=O)N[C@@H](CO)C(=O)N[C@@H](CC(C)C)C(=O)N[C@@H](CCCCN)C(=O)N[C@@H](CCCCN)C(=O)N[C@@H](Cc1c[nH]c2ccccc12)C(N)=O)[C@@H](C)CC [PapMA-10, RWK IFK KIP KLL HSL KKW-NH2] (H-RWKIFKKIPKLLHSLKKW-NH2; N-terminus assumed) | 64 (≈ 27.2 µM) | 8 (≈ 3.41 µM) | 8 (≈ 3.41 µM) | 16 (≈ 6.81 µM) | 16 (≈ 6.81 µM) | 16 | 32 (≈ 13.6 µM) | 32 | 16 (≈ 6.81 µM) | 32 (≈ 13.6 µM) | >128 | >128 | >128 | 32 | >128 | >128 | 32 | >128 | >128 | 16 | Linezolid MIC during combined treatment with peptide [12, 15]: 64 µg/mL; Vancomycin MIC during combined treatment with peptide [12, 15]: 64 µg/mL; Erythromycin MIC during combined treatment with peptide [12, 16]: 8 µg/mL; Linezolid MIC during combined treatment with peptide [12, 16]: 32 µg/mL; Vancomycin MIC during combined treatment with peptide [12, 16]: 32 µg/mL; Erythromycin MIC during combined treatment with peptide [12, 17]: 8 µg/mL; Linezolid MIC during combined treatment with peptide [12, 17]: 16 µg/mL; Vancomycin MIC during combined treatment with peptide [12, 17]: 16 µg/mL; Erythromycin MIC during combined treatment with peptide [12, 18]: 4 µg/mL; Linezolid MIC during combined treatment with peptide [12, 18]: 8 µg/mL; Vancomycin MIC during combined treatment with peptide [12, 18]: 4 µg/mL; Erythromycin MIC during combined treatment with peptide [12, 19]: 0 µg/mL; Linezolid MIC during combined treatment with peptide [12, 19]: 2 µg/mL; Vancomycin MIC during combined treatment with peptide [12, 19]: 4 µg/mL; Erythromycin MIC during combined treatment with peptide [12, 20]: 0 µg/mL; Linezolid MIC during combined treatment with peptide [12, 20]: 0 µg/mL; Vancomycin MIC during combined treatment with peptide [12, 20]: 0 µg/mL
2 | CC[C@H](C)[C@H](NC(=O)[C@H](CCCCN)NC(=O)[C@H](Cc1c[nH]c2ccccc12)NC(=O)[C@@H](N)CCCNC(=N)N)C(=O)N[C@@H](Cc1ccccc1)C(=O)N[C@@H](CCCCN)C(=O)N[C@@H](CCCCN)C(=O)N[C@H](C(=O)N1CCC[C@H]1C(=O)N[C@@H](CCCCN)C(=O)N[C@@H](Cc1ccccc1)C(=O)N[C@@H](CC(C)C)C(=O)N[C@@H](Cc1c[nH]cn1)C(=O)N[C@@H](CCC(=O)O)C(=O)N[C@@H](C)C(=O)N[C@@H](CCCCN)C(=O)N[C@@H](CCCCN)C(=O)N[C@@H](Cc1ccccc1)C(N)=O)[C@@H](C)CC [PapMA-11, RWK IFK KIP KFL HEA KKF-NH2] (H-RWKIFKKIPKFLHEAKKF-NH2; N-terminus assumed) | 64 (≈ 27.3 µM) | 128 (≈ 54.6 µM) | 128 (≈ 54.6 µM) | >128 | 64 (≈ 27.3 µM) | 64 | 64 (≈ 27.3 µM) | 64 | 64 (≈ 27.3 µM) | 64 (≈ 27.3 µM) | >128 | >128 | >128 | 32 | >128 | >128 | 16 | 128 | 128 | 8 | Linezolid MIC during combined treatment with peptide [12, 15]: 64 µg/mL; Vancomycin MIC during combined treatment with peptide [12, 15]: 64 µg/mL; Erythromycin MIC during combined treatment with peptide [12, 16]: 2 µg/mL; Linezolid MIC during combined treatment with peptide [12, 16]: 32 µg/mL; Vancomycin MIC during combined treatment with peptide [12, 16]: 32 µg/mL; Erythromycin MIC during combined treatment with peptide [12, 17]: 1 µg/mL; Linezolid MIC during combined treatment with peptide [12, 17]: 16 µg/mL; Vancomycin MIC during combined treatment with peptide [12, 17]: 32 µg/mL; Erythromycin MIC during combined treatment with peptide [12, 18]: 0.5 µg/mL; Linezolid MIC during combined treatment with peptide [12, 18]: 8 µg/mL; Vancomycin MIC during combined treatment with peptide [12, 18]: 16 µg/mL; Erythromycin MIC during combined treatment with peptide [12, 19]: 0.125 µg/mL; Linezolid MIC during combined treatment with peptide [12, 19]: 2 µg/mL; Vancomycin MIC during combined treatment with peptide [12, 19]: 4 µg/mL; Erythromycin MIC during combined treatment with peptide [12, 20]: 0 µg/mL; Linezolid MIC during combined treatment with peptide [12, 20]: 0 µg/mL; Vancomycin MIC during combined treatment with peptide [12, 20]: 0 µg/mL
